“And” between values parts separate entries of the source, which are not always exact repeats. Equal entries are not always repeated. “Also recorded” adds a separate entry of the source. Marks after values point to notes of the source that are not given here. Peptide text beside a SMILES is read from it.
Molecular target: T1, Nav1.6 in the presence of FGF14 (FGF14-1b-GFP) (Homo sapiens, UniProt Q92915)
T1 construct: expressed in transfected cells
T1 sequence (Q92915 1-252 isoform Q92915-2): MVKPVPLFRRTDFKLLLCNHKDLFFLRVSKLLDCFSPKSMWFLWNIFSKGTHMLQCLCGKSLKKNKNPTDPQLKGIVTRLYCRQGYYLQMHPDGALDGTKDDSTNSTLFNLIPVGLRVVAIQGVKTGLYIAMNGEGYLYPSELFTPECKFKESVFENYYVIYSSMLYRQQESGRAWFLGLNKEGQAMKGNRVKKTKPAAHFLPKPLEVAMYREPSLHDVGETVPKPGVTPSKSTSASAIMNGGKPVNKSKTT
Test: Whole-cell patch-clamp, HEK-Nav1.6 cells expressing FGF14-GFP
Format: cell-based
Conditions: 50 μM FLPK
From the text: Plasmids used in this study derived from the following clones: human FGF14‐1b isoform (accession number: NM_175929.2) and human Nav1.6 (accession number: NM_014191.3). The CLuc‐FGF14, CD4‐Nav1.6‐NLuc, constructs and the pcDNA3.1 vector (Invitrogen, Carlsbad, CA) were engineered and characterized as previously described (Goetz et al., 2009; Shavkunov et al., 2012,2013,2015; Ali et al., 2016, 2018; Wadsworth et al., 2019). The plasmid pGL3 expressing full length Firefly (Photinus pyralis) luciferase was a gift from Dr. P. Sarkar (Department of Neurology, UTMB). For protein purification studies, cDNAs encoding FGF14‐1b (accession number NP_787125; aa 64–252) or the C‐terminal tail of Nav1.6 (accession number #NP_001171455; aa 1756–1939) were subcloned into suitable pET bacterial expression vectors (pET28a‐FGF14; pET30a‐Nav1.6) with a 6X His‐tag at the N‐terminal site; these plasmids were a gift of Dr. Moosa Mohammadi (NYU, Langone Medical Center). The mutation coding for FGF14^V160A was generated by site‐directed mutagenesis and PCR using FGF14‐1b as a template described previously (Ali et al., 2016). For electrophysiological studies FGF14‐GFP (human) and FGF14‐ΔNT‐GFP (human) were cloned into the GFP plasmid (pQBI‐fC2; Quantum Biotechnology Inc., Montreal, Canada) as previously described.
HEK293 cells were maintained in DMEM and F‐12 (Invitrogen, Carlsbad, CA), supplemented with 0.05% glucose, 0.5 mM pyruvate, 10% fetal bovine serum, 100 units/ml penicillin, and 100 µg/ml streptomycin (Invitrogen), and incubated at 37 °C with 5% CO2. HEK293 cells stably expressing the human Nav1.6 channel (hereafter referred to as HEK‐Nav1.6 cells) were maintained similarly except for the addition of 500 μg/ml G418 (Invitrogen) to maintain stable Nav1.6 expression. Cells were transfected at 80%–90% confluence with equal amount (1 μg each) of plasmid pairs using Lipofectamine 2000 (Invitrogen) according to manufacturer's instructions. HEK‐Nav1.6 cells were washed and replated at very low density prior to electrophysiological recordings (Ali et al., 2016, 2018; Scala et al., 2018; Wadsworth et al., 2019).
HEK‐Nav1.6 cells transfected with GFP or FGF14‐GFP were plated at low density on glass cover slips for 3–4 hr and subsequently transferred to the recording chamber. Recordings were performed at room temperature (20–22°C) 24 hr posttransfection using a MultiClamp 700B amplifier (Molecular Devices, Sunnyvale, CA). The composition of recording solutions consisted of the following salts; extracellular (mM): 140 NaCl, 3 KCl, 1 MgCl2, 1 CaCl2, 10 HEPES, 10 glucose, pH 7.3; intracellular (mM): 130 CH3O3SCs, 1 EGTA, 10 NaCl, 10 HEPES, pH 7.3. Membrane capacitance and series resistance were estimated by the dial settings on the amplifier and compensated for electronically by 70%–75%. Data were acquired at 20 kHz and filtered at 5 kHz prior to digitization and storage. All experimental parameters were controlled by Clampex 9.2 software (Molecular Devices) and interfaced to the electrophysiological equipment using a Digidata 1,200 analog‐digital interface (Molecular Devices). Voltage‐dependent inward currents for HEK‐Nav1.6 cells were evoked by depolarization to test potentials between −100 mV and +60 mV from a holding potential of −70 mV followed by a voltage prestep pulse of −120 mV (Nav1.6). Steady‐state (fast) inactivation of Nav channels was measured with a paired‐pulse protocol. From the holding potential, cells were stepped to varying test potentials between −120 mV (Nav1.6) and +20 mV (prepulse) prior to a test pulse to −20 mV.
Current densities were obtained by dividing Na^+ current (INa) amplitude by membrane capacitance. Current–voltage relationships were generated by plotting current density as a function of the […]. Conductance (GNa) was calculated by the following equation: GNa=INa/Vm‐Erev where INa ^+ is the current amplitude at voltage Vm, and Erev is the Na^+ reversal potential. […]

CC(=O)N[C@@H](Cc1ccccc1)C(=O)N[C@@H](CC(C)C)C(=O)N1CCC[C@H]1C(=O)N[C@@H](CCCCN)C(N)=O [FLPK] (Ac-FLPK-NH2)
Peak density (I Na) (FGF14-GFP, at −10 mV, mean ± SEM (n = 21), DMSO −16.8 ± 3.3, p < .05 vs FGF14-GFP (DMSO)): −49.6 ± 7.2 pA/pF and −49.6 ± 7.2 (21) ^c pA/pF
Kact (FGF14-GFP, mean ± SEM (n = 11), DMSO 5.7 ± 0.4): 5.7 ± 0.5 (11) ^h,i mV
Activation (V1/2) (FGF14-GFP, mean ± SEM (n = 11), DMSO −16.6 ± 1.0): −20.8 ± 1.5 mV and −20.8 ± 1.5 (11) mV
Steady-state Inactivation (V1/2) (FGF14-GFP, mean ± SEM (n = 11 in Table 3; n = 14 in text), DMSO −54.9 ± 1.1): −59.2 ± 2.1 (11) mV
Kinact (FGF14-GFP, mean ± SEM (n = 14), DMSO 5.9 ± 0.9): 5.9 ± 0.6 (14) mV
shift of V1/2 of activation vs DMSO control (FGF14 wild type, hyperpolarizing direction): −4 mV
effect on FGF14-dependent phenotypes of Nav1.6 currents (HEK-Nav1.6 FGF14-GFP): effectively restored I Na to values that were statistically comparable to the GFP + DMSO control; also recorded: inhibited previously reported modulatory effects of FGF14 (1b isoform) on Nav1.6 currents

Source: paper PMC7363588, “Mapping of the FGF14:Nav1.6 complex interface reveals FLPK as a functionally active peptide modulating excitability” (Physiological Reports, 2020)
